Assay results taken from patent publication US7166607B2, “Substituted indoles” (AstraZeneca AB, priority 2002, dated 2007).

Legend:
rhCRTh2 = target: T1, rhCRTh2 (Homo sapiens, UniProt Q9Y5Y4); experiment: Ligand Binding Assay ([3H]PGD2 SPA, HEK cell membranes); conditions: [3H]PGD2 displacement, membranes of HEK cells expressing rhCRTh2/Gα16, SPA beads, 2 hours room temperature
T1 construct: expressed in transfected cells; host or cells: HEK cells (stably transfected, geneticin selection; expression induced with sodium butyrate); membrane preparation
T1 sequence (Q9Y5Y4 1-395): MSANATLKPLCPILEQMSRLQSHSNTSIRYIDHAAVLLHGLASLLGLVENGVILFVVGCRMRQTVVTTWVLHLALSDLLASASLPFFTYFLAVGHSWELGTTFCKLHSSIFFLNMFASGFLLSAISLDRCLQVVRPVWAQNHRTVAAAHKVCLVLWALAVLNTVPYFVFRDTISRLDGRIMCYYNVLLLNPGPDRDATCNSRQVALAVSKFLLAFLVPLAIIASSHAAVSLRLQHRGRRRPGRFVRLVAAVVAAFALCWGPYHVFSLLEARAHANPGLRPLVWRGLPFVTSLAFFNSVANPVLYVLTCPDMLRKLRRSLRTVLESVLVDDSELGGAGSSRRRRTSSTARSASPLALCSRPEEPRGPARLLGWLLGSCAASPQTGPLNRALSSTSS
Experimental: [^3H]PGD2 was purchased from Perkin Elmer Life Sciences with a specific activity of 100–210 Ci/mmol. All other chemicals were of analytical grade.
HEK cells expressing rhCRTh2/Gα16 were routinely maintained in DMEM containing 10% Foetal Bovine Serum (HyClone), 1 mg/ml geneticin, 2 mM L-glutamine and 1% non-essential amino acids. For the preparation of membranes, the adherent transfected HEK cells were grown to confluence in two layer tissue culture factories (Fisher, catalogue number TKT-170-070E). Maximal levels of receptor expression were induced by addition of […] sodium butyrate for the last 18 hours of culture. The adherent cells were washed once with phosphate buffered saline (PBS, 50 ml per cell factory) and detached by the addition of 50 ml per cell factory of ice-cold membrane homogenisation buffer [20 mM HEPES (pH 7.4), 0.1 mM dithiothreitol, 1 mM EDTA, 0.1 mM phenyl methyl sulphonyl fluoride and 100 μg/ml bacitracin]. […] The final pellet was re-suspended in 4 ml of membrane homogenisation buffer per cell factory used and the protein content determined. […]
All assays were performed in Corning clear bottomed, white 96-well NBS plates (Fisher). […] (The optimum coating concentrations were determined for each batch of membranes) The beads were pelleted by centrifugation (800×g for 7 minutes at 4° C.), washed once with assay buffer (50 mM HEPES pH 7.4 containing 5 mM magnesium chloride) and finally re-suspended in assay buffer at a bead concentration of 10 mg/ml.
Each assay contained 20 μl of 6.25 nM [^3H]PGD2, 20 μl membrane saturated SPA beads both in assay buffer and 10 μl of compound solution or 13,14-dihydro-15-keto prostaglandin D2 (DK-PGD2, for determination of non-specific binding, Cayman chemical company). […] The assay plate was incubated at room temperature for 2 hours and counted on a Wallac Microbeta liquid scintillation counter (1 minute per well).

melting point | IC50 (rhCRTh2) | Compound
173 °C | 891 nM | Cc1c(Sc2ccc(Cl)cc2)c2c(N3CCN(C(=O)OC(C)(C)C)CC3)cccc2n1CC(=O)O [Example 23, 3-[(4-chlorophenyl)thio]-4-[4-[(1,1-dimethylethoxy)carbonyl]-1-piperazinyl]-2-methyl-1H-indole-1-acetic acid]
 | 4.47 nM | COc1cccc(Sc2c(C)n(CC(=O)O)c3ccc(C)cc23)c1 [Example 29, 3-[(3-methoxyphenyl)thio]-2,5-dimethyl-1H-indole-1-acetic acid]
 | 63.1 nM | Cc1ccc2c(c(Sc3nc(-c4ccccc4)cs3)c(C)n2CC(=O)O)c1S(C)(=O)=O [Example 50, 2,5-dimethyl-4-(methylsulfonyl)-3-[(4-phenyl-2-thiazolyl)thio]-1H-indole-1-acetic acid]
221 to 223 °C |  | COC(=O)c1ccc2c(c1)c(Sc1ccc(Cl)cc1)c(C)n2CC(=O)O [Example 53, 3-[(4-chlorophenyl)thio]-5-(methoxycarbonyl)-2-methyl-1H-indole-1-acetic acid]
